The conditions of data set [1]: mice. The protocol:
Mice were implanted subcutaneously with Alzet pumps containing Saline (Negative Control), Vehicle or Carbidopa solution. A day following implantation LD/CD was administered orally Q8 h. The level of levodopa and dopamine in the brain was determined following the 4th oral dose of LD/CD.

For data set [2] the following is noted: in vivo, sc.
For data set [3] the following is noted: in vivo.
Source text: (§1) In this experiment, the purpose was to determine the effect of continuous subcutaneous administration of carbidopa, with co-administration of oral L-dopa/carbidopa, on the pharmacokinetics of levodopa in pigs.
For data set [4] the following is noted: cited from earlier work.
The conditions of data set [5]: man, monkey and dog; cited from earlier work.
Data set [6] can be described thus: Effect of continuous subcutaneous carbidopa on pharmacokinetics of levodopa and carbidopa in pigs.
Source text: as §1
Where [7] appears, read: continuous subcutaneous carbidopa co-administered with any oral LD preparation.

`C[C@@](Cc1ccc(O)c(O)c1)(NN)C(=O)O` [Carbidopa, (−)-L-α-hydrazino-α-methyl-β-(3,4-dihydroxybenzene)propanoic acid monohydrate]: the “levels of plasma LD” value in data set [1] (oral LD/CD with continuous SC carbidopa 15 mg/kg/d) is listed as “higher levels of plasma LD”. Moreover, the “dopamine levels in the brain” value in data set [1] (seven hours post oral LD (LD/CD 32/8 mg/kg TID), continuous SC carbidopa 15 mg/kg/d) is reported as “significantly higher”. The “histological analysis of infusion sites (local tolerance)” value in data set [2] is recorded as “No histological treatment-related abnormalities were observed”. Besides, in data set [3], the “treatment related local or systemic toxicity” value is given as “No signs of treatment related local or systemic toxicity were observed”. In addition, in data set [4], the “solubility in alcohol, chloroform or ether” value is recorded as “practically insoluble” and the solubility in water entry is on record as “only slightly soluble in water”. Besides, the “fraction of an oral dose absorbed” value in data set [5] is 40-70%. For the same molecule, the “effect of increased carbidopa oral dose or frequency on the PK profile of levodopa” value in data set [6] was “did not considerably improve”. Moreover, in data set [6] (setting [7]), the “increase of the AUC of levodopa” value is reported as greater than 2 × and the “increase of the half live (t½) of levodopa” value is given as greater than 2 ×.

Source of the values: patent US20130253056A1, “Continuous Administration of Levodopa and/or Dopa Decarboxylase Inhibitors and Compositions for Same” (NEURODERM, LTD., priority 2009, published 2013).
